Results: ChEMBL document CHEMBL1201862, “PubChem BioAssay data set” (2004)
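A five-concentration, 48-hour dose response in 96-well plates underlies each endpoint, interpolated linearly between surrounding concentrations. At the GI50, growth is halved.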 Active and inactive are the calls of the source. Rule as the data show it: active = GI50 up to about 1.1 µM and inactive = higher.

Columns and labels:
Assay in all cases: NCI tumour cell line growth inhibition, 48 h
786-0 = test system: 786-0
A549 = test system: A549
DU-145 = test system: DU-145
EKVX = test system: EKVX
HL-60 = test system: HL-60
HOP-62 = test system: HOP-62
HT-29 = test system: HT-29
KM12 = test system: KM12
MOLT-4 = test system: MOLT-4
NCI-H460 = test system: NCI-H460
OVCAR-3 = test system: OVCAR-3
OVCAR-4 = test system: OVCAR-4
SF-295 = test system: SF-295
SF-539 = test system: SF-539
SK-MEL-28 = test system: SK-MEL-28
SNB-19 = test system: SNB-19
TK-10 = test system: TK-10
UACC-257 = test system: UACC-257
Hs-578T = test system: Hs-578T
SF-268 = test system: SF-268

Row | Compound | GI50 (786-0) | GI50 (A549) | GI50 (DU-145) | GI50 (EKVX) | GI50 (HL-60) | GI50 (HOP-62) | GI50 (HT-29) | GI50 (KM12) | GI50 (MOLT-4) | GI50 (NCI-H460) | GI50 (OVCAR-3) | GI50 (OVCAR-4) | GI50 (SF-295) | GI50 (SF-539) | GI50 (SK-MEL-28) | GI50 (SNB-19) | GI50 (TK-10) | GI50 (UACC-257) | GI50 (Hs-578T) | GI50 (SF-268)
1 | Cc1ccccc1NC(=O)Cc1csc(N/N=C2\NC(=O)/C(=C/c3cccc([N+](=O)[O-])c3)S2)n1 | 45.2 µM (inactive) | 16.7 µM (inactive) | 36.1 µM (inactive) | 13.5 µM (inactive) | 17.8 µM (inactive) | 22.9 µM (inactive) | 34.7 µM (inactive) | 16.6 µM (inactive) | 23.9 µM (inactive) | 15.6 µM (inactive) | 19.7 µM (inactive) | 20.6 µM (inactive) | 18.1 µM (inactive) | 17.1 µM (inactive) | 19.1 µM (inactive) | 16.1 µM (inactive) | 18.9 µM (inactive) | 20.3 µM (inactive) |  | 
2 | N#CC1=C(C#N)/C(=C(\C#N)C(C#N)C#N)N=C1N | 39.4 µM (inactive) | 21.4 µM (inactive) | 38.9 µM (inactive) | 43.9 µM (inactive) |  | 26.7 µM (inactive) | 23.5 µM (inactive) | 64.4 µM (inactive) | 13.4 µM (inactive) | 28.6 µM (inactive) | 34.5 µM (inactive) | 28.2 µM (inactive) | 31.2 µM (inactive) | 22.4 µM (inactive) | 21.1 µM (inactive) | 51.9 µM (inactive) | > 32.6 µM (inactive) | 19.6 µM (inactive) | 28.2 µM (inactive) | 32.7 µM (inactive)
3 | CCOc1ccc(NC(=O)/C(=N\N)C(C(=O)OC)c2nc3ccc(Cl)cc3nc2O)cc1 (stereo not given) | > 100 µM (inactive) | > 100 µM (inactive) |  | 33 µM (inactive) | > 100 µM (inactive) | > 100 µM (inactive) | > 100 µM (inactive) | > 100 µM (inactive) |  | > 100 µM (inactive) | > 100 µM (inactive) | > 100 µM (inactive) | > 100 µM (inactive) | > 100 µM (inactive) | > 100 µM (inactive) |  | > 100 µM (inactive) | > 100 µM (inactive) | > 100 µM (inactive) | > 100 µM (inactive)
4 | Cc1sc2nc(-c3cc([N+](=O)[O-])c(Cl)cc3Cl)c(/C=N/NC(=N)N)n2c1C | 5.46 µM (inactive) | 22.9 µM (inactive) | 14.5 µM (inactive) | 19.8 µM (inactive) |  | 7.66 µM (inactive) | 3.25 µM (inactive) | 3.63 µM (inactive) | 1.62 µM (inactive) | 6.34 µM (inactive) | 4.06 µM (inactive) | 2.36 µM (inactive) | 13 µM (inactive) | 30.5 µM (inactive) | 2.4 µM (inactive) |  | 13.9 µM (inactive) | 10 µM (inactive) | 16.7 µM (inactive) | 10.5 µM (inactive)
5 | Cn1c(=O)c2nc(CCCCc3nc4c(=O)n(C)c(=S)n(C)c4[nH]3)[nH]c2n(C)c1=S | > 100 µM (inactive) | > 100 µM (inactive) | > 100 µM (inactive) | 23.4 µM (inactive) |  | 38.9 µM (inactive) | > 100 µM (inactive) | > 100 µM (inactive) |  | > 100 µM (inactive) | > 100 µM (inactive) | > 100 µM (inactive) | 88.1 µM (inactive) | 40.8 µM (inactive) | > 100 µM (inactive) | 76.6 µM (inactive) | > 100 µM (inactive) | > 100 µM (inactive) | > 100 µM (inactive) | > 100 µM (inactive)
6 | O=c1[nH]c(=O)n(C2OC(CO)C(O)C2O)c2ncc(-c3ccc(-c4ccccc4)cc3)nc12 (stereo not given) | > 20 µM (inactive) | > 20 µM (inactive) | > 20 µM (inactive) | > 20 µM (inactive) |  | > 20 µM (inactive) | > 20 µM (inactive) | > 20 µM (inactive) | > 20 µM (inactive) | > 20 µM (inactive) |  | > 20 µM (inactive) | > 20 µM (inactive) | > 20 µM (inactive) |  | > 20 µM (inactive) | > 20 µM (inactive) | > 20 µM (inactive) | > 20 µM (inactive) | > 20 µM (inactive)
7 | NC1=Nc2ccccc2Sc2cccc(F)c21 | > 100 µM (inactive) | 57.5 µM (inactive) | > 100 µM (inactive) | 50.9 µM (inactive) | 24 µM (inactive) | > 100 µM (inactive) | > 100 µM (inactive) | 97.7 µM (inactive) | 37.8 µM (inactive) | > 100 µM (inactive) | 44 µM (inactive) | 58.3 µM (inactive) | 40.4 µM (inactive) | > 100 µM (inactive) | > 100 µM (inactive) | > 100 µM (inactive) | > 100 µM (inactive) | 46.3 µM (inactive) |  | > 100 µM (inactive)
8 | CC1OC(OC2C(O)COC(OC3C(C)OC(OC4C(OC(=O)[C@]56CCC(C)(C)C[C@@H]5C5=CCC7[C@@]8(C)C[C@H](O)[C@H](OC9OC(CO)C(O)C(OC%10OC(CO)C(O)C(O)C%10O)C9O)[C@@](C)(CO)[C@@H]8CC[C@@]7(C)[C@]5(C)CC6)OCC(O)C4O)C(O)C3OC3OCC(O)(CO)C3O)C2O)C(O)C(O)C1O (stereo not given in full) | 8.09 µM (inactive) | 6.61 µM (inactive) | 8.28 µM (inactive) | 5.83 µM (inactive) |  | 9.95 µM (inactive) |  | 9.48 µM (inactive) | 9.77 µM (inactive) | 12.7 µM (inactive) | 9.64 µM (inactive) | 7.94 µM (inactive) | 9.66 µM (inactive) | 8.83 µM (inactive) | 6.24 µM (inactive) | 8.89 µM (inactive) | 9.79 µM (inactive) | 9.1 µM (inactive) | 11.3 µM (inactive) | 10 µM (inactive)
9 | CCc1n[nH]c(=O)n1CCCCCCCCCCCCn1c(CC)n[nH]c1=O | 35.5 µM (inactive) | 27.9 µM (inactive) |  | 32 µM (inactive) |  | 56.6 µM (inactive) | 32.7 µM (inactive) | 33.6 µM (inactive) | 22.5 µM (inactive) | 26.6 µM (inactive) | 37.8 µM (inactive) | 20.3 µM (inactive) | 25.1 µM (inactive) | 48.4 µM (inactive) |  | 39.7 µM (inactive) | 33 µM (inactive) | 11.7 µM (inactive) | 22 µM (inactive) | 29.7 µM (inactive)
10 | CC(C)C[C@H](NC(=O)CCc1cccc2ccccc12)B(O)O | 0.923 µM (active) | 4.74 µM (inactive) | 4.62 µM (inactive) | 5.27 µM (inactive) |  | 3.22 µM (inactive) | 0.628 µM (active) | 1.89 µM (inactive) | 0.375 µM (active) | 3.21 µM (inactive) | 0.463 µM (active) | 4.56 µM (inactive) | 1.74 µM (inactive) | 0.333 µM (active) | 0.716 µM (active) | 5.43 µM (inactive) | 0.578 µM (active) | 1.2 µM (inactive) | 0.857 µM (active) | 1.32 µM (inactive)
11 | Cc1cc(OC(=O)Nc2ccc(Cl)cc2)ccc1C(=S)Nc1ccccc1 | 80 µM (inactive) | 50.2 µM (inactive) |  | 60.3 µM (inactive) | 14 µM (inactive) | > 100 µM (inactive) | 24.5 µM (inactive) | 8.93 µM (inactive) | 29.6 µM (inactive) | 18.5 µM (inactive) | 50.6 µM (inactive) | 24.8 µM (inactive) | 38.5 µM (inactive) | > 100 µM (inactive) | 71.1 µM (inactive) | > 100 µM (inactive) |  | 23.2 µM (inactive) | 91 µM (inactive) | 47.9 µM (inactive)
12 | COC(=O)C(Cc1cc(OC)c(OC)c(OC)c1)c1ccc(OC)cc1 (stereo not given) | > 100 µM (inactive) | > 100 µM (inactive) |  | > 100 µM (inactive) | 95.5 µM (inactive) | > 100 µM (inactive) | > 100 µM (inactive) | > 100 µM (inactive) | 62.7 µM (inactive) | > 100 µM (inactive) | 95.7 µM (inactive) | > 100 µM (inactive) | > 100 µM (inactive) | > 100 µM (inactive) | > 100 µM (inactive) | > 100 µM (inactive) | > 100 µM (inactive) | > 100 µM (inactive) |  | > 100 µM (inactive)
13 | O=C(CSc1nc(-c2ccccc2)c(-c2ccccc2)[nH]1)NNC(=S)Nc1ccccc1 | > 100 µM (inactive) | > 100 µM (inactive) |  | 0.414 µM (active) | 22.8 µM (inactive) | > 100 µM (inactive) | 69.2 µM (inactive) | > 100 µM (inactive) | 33.7 µM (inactive) | > 100 µM (inactive) | 59.8 µM (inactive) | 64 µM (inactive) | 49.9 µM (inactive) | > 100 µM (inactive) | > 100 µM (inactive) | > 100 µM (inactive) | 53.2 µM (inactive) | > 100 µM (inactive) |  | > 100 µM (inactive)
14 | COC(CN1C=C(Sc2ccccc2)CC1)OC | 36.4 µM (inactive) | 30.8 µM (inactive) |  | 43.3 µM (inactive) | 15.6 µM (inactive) | 47.3 µM (inactive) | 24.8 µM (inactive) | 23.8 µM (inactive) | 27.2 µM (inactive) | 31.7 µM (inactive) | 20.2 µM (inactive) | 34 µM (inactive) | 19.5 µM (inactive) | 26.4 µM (inactive) | 31 µM (inactive) | 37.8 µM (inactive) | 32.7 µM (inactive) | 34.8 µM (inactive) |  | 29.7 µM (inactive)
15 | CC(C)(C)OC(=O)N[C@H]1CC(=O)c2ccccc2N(CC(=O)O)C1=O | > 100 µM (inactive) | > 100 µM (inactive) |  | > 100 µM (inactive) | > 100 µM (inactive) | > 100 µM (inactive) | > 100 µM (inactive) | > 100 µM (inactive) | > 100 µM (inactive) | > 100 µM (inactive) | > 100 µM (inactive) | > 100 µM (inactive) | > 100 µM (inactive) | > 100 µM (inactive) | > 100 µM (inactive) | > 100 µM (inactive) | > 100 µM (inactive) | > 100 µM (inactive) |  | > 100 µM (inactive)
